Consider 4 compounds from article PMC11989239, “Structure–Property Relationships in Novel Series of Photoswitchable Local Anesthetic Ethercaine Derivatives: Emphasis on Biological and Photophysical Properties” (International Journal of Molecular Sciences, 2025).

Where a name gives a salt, the structure may show the parent alone. Read-outs that look alike come from different tables or passages of the source. Where only a bound is given, the exact number is not on record here.

Series [1] is described as follows: In vitro cytotoxicity, MTT test, 24 h incubation. Format: cell-based, human. To be noted: human, dermal fibroblast cells (DF2), DF2 fibroblasts. The protocol:
(§1) The culture of dermal fibroblast cells (DF2) was obtained from the collection of the Institute of Cytology of the Russian Academy of Sciences (Saint Petersburg, Russia). The cells were cultured in plastic vials with a cell growth surface of 25 cm^2 (Costar, Richmond, VA, USA) on DMEM/F12 medium with the addition of L-glutamine and 10% fetal bovine serum (FBS) (PanEco, Moscow, Russia). The cells were cultured at 37 °C in a humid atmosphere with a content of 5% CO2 (Binder CO2 incubator, Germany). Cell lines from 3 to 7 passages were used in the work. To conduct experiments to evaluate the cytotoxicity of compounds, cells were sieved into 96-well culture plates at a concentration of 10^5 cells per ml, incubated at 37 °C (humidified atmosphere, 5% carbon dioxide) for 24–28 h. Further, 50 µL of the studied substances was added. The cells were incubated with the compounds for 24 h at 37 °C. Next, the cytotoxic effect of the substances was evaluated by a colorimetric method using an MTT test and visually, using an inverted microscope. The criterion for evaluating the specific activity of the compound was the value of IC50, the concentration at which 50% death of culture cells was noted.
For orientation: Tetrazolium assays rely on reduction of a dye to a coloured formazan, in cell work by metabolically active cells.

The nature of series [2]: Z-E isomerization half-life by UV/Vis spectrophotometry after 365 nm irradiation. Format: physicochemical. To be noted: for τ1/2 (DMSO), Z-E isomerization half-life: RT, after 365 nm 5 min; for τ1/2 (Aqueous Kolliphor ELP), Z-E isomerization half-life: aqueous 4% Kolliphor ELP solution. The procedure: As one of the main physicochemical properties of photopharmacological agents, the Z-E half-life was investigated, which determines the stability of the Z-isomer. The Z-E half-lifes were measured using UV/Vis spectrophotometry, converting the compound to the Z-isomer by irradiating with UV light and observing the change in absorption intensity due to reverse Z-E relaxation.
Z-E isomerization half-life was determined using UV/Vis spectroscopy. Solutions were prepared and kept in the dark at RT before the experiment. First, the spectrum in the dark was registered ( PSSdark) , which corresponds to the photostationary state (PSS) with E-isomer predominance. Then, the cuvette with the solution was irradiated with UV light (λ = 365 nm) for 5 min to give the PSS with Z-isomer predominance. The corresponding spectrum was registered ( PSS365nm) . During the subsequent isomerization, the kinetics of changes in the absorption value were recorded at the wavelength of the absorption maximum corresponding to the E-isomer ( λmax(E)) . Then, lnAt/A0 values were calculated using the Equation (1):(1) lnAt/A0=lnAbsPSS(dark)−Abstime/AbsPSS(dark)−AbsPSS(365nm), where AbsPSS(dark) , AbsPSS(365nm), and Abstime are absorbance values at λmax(E) in the dark at the beginning of the experiment, after UV light (λ = 365 nm) irradiation, and at different time points from 0 to 60 min, respectively. Then, a graph was plotted depending on lnAt/A0 values from time, the trend line was calculated, and a first-order rate constant (k) for the thermal back Z-E isomerization reaction was obtained as the slope of the trend line.
For a first-order reaction, half-life t1/2 can be calculated using the Equation (2):(2) t1/2=ln2/k

Series [3] in a line: Solubility in water / aqueous solutions. It counts as physicochemical.
The test system of series [4] is rabbit eye cornea. The arrangement: method as in PMID 35628162. To be noted: 2% solution of lidocaine, obtained previously, cited from earlier work; for Local Anesthetic Activity (Regnier Index, Min—13, Max—1300) Under Irradiation (λ = 365 nm): UV light irradiation.
For series [5], the system named is human dermal fibroblasts (DF2). Description: In vitro cytotoxicity, MTT test, 24 h incubation. Format: cell-based. The procedure:
as §1

Series [6] deals with rabbit eye cornea. Description: Surface anesthesia on the rabbit cornea, Regnier method (Regnier index). Format: in vivo. The note with it: 1% solution, 0.2 mL instilled, mean ± SD. The protocol:
Thus, the main biological property investigated in this work was the local anesthetic activity of the new derivatives in the dark (with a predominance of the E-form) and under irradiation (with a predominance of the Z-form). The evaluation of local anesthetic activity was conducted on the rabbit cornea using the Regnier method. […] RI values in darkness (451 ± 40) and under UV light irradiation (469 ± 37) for a 2% solution of lidocaine, used as a reference drug, were obtained previously and are independent of light exposure. A 4% aqueous solution of Kolliphor® ELP, used for solubilizing ethercaine and its derivatives and lacking intrinsic local anesthetic activity, was employed as a negative control. In vitro cytotoxicity studies were conducted to initially assess the safety of the compounds.
Non-anesthetized, mature male rabbits of a Soviet chinchilla breed weighing 2–3 kg, obtained from the KrolInfo farm (Orekhovo-Zuyevo, Russia), were used in this study. Animals were kept under standard conditions (humidity 50–60%, temperature 19–22 °C). A 12-h lighting cycle was maintained. Each animal was kept in a separate cage. Animals had ad libitum access to standard extruded feed “CHARA” (CJSC “Assortiment-Agro”, Turakovo Village, Moscow region, Russia) and clean drinking water. Water treatment was performed using a “7 TECHNOCOM” block modular system (LLC “7 TECH”, Moscow, Russia). For in vivo, surface anesthesia measurements, an in-house-made anesthesiometer with a fixed length of a nylon filament (l = 1.0 cm, d = 0.125 mm) was used. Statistical analysis was performed, and figures were plotted using the Python programming language’s standard functions and a Matplotlib package (Version 3.8) for Python. All biological data conformed to a normal distribution (Shapiro–Wilk’s W test, p > 0.05). All data are expressed as the mean ± standard deviation.
For determination of the rabbit eye cornea’s sensitivity using the surface anesthesia method, 12 rabbits with a basic sensitivity threshold (sensitivity threshold of the eye cornea to tactile impact of the anesthesiometer) of 1–2 touches were selected. They were used in experiments repeatedly with an interval of at least 5 days between the experiments. Each eye was considered as a separate experimental point. Three animals were used in each of the experimental groups (n = 6). Two animals (n = 4) were used in each of the negative control groups and in each of experimental groups with UV irradiation due to the expected lack of the effect and to minimize the number of animals in the experiment. Animals were randomly divided into groups. Before an experiment, the animals were immobilized, leaving the head free. Before each experiment, the animals’ eyelashes were cut out, and the basic threshold of sensitivity of the eye cornea to tactile contact was determined using an anesthesiometer.
The irradiation modes were described earlier. Experiments with animals were carried out in a darkened room with a 50W LED light source (λ = 625 nm), which lies outside the absorption bands of the UV/Vis spectrum of the test compound. Before the experiments, solutions of test compounds were irradiated for 5 min with UV light (λ = 365 nm, LED flashlight, 0.5 W).
The adaptation of a model of surface anesthesia on the rabbit’s cornea using the Regnier method for the study of light-controlled local anesthetics was described earlier. The test solution (0.2 mL) of the required concentration (2% for the lidocaine or 1% for the ethercaine and its derivatives) was instilled into each conjunctival sac. After that, the sensitivity threshold of the eye cornea to tactile impact was determined. The first determination was performed at the 8th minute of the experiment and then at the 10th, 12th, 15th, 20th, 25th, 30th, 35th, 40th, 45th, 50th, 55th, and 60th min (13 values overall). […]

In the case of `O=C(CN1CCOCC1)Nc1ccc(/N=N/c2ccccc2)cc1` [Compound 2], in series [1], the IC50 (as a rule, the midpoint of a concentration-inhibition curve) at 24 h is > 200 µM. In addition, in series [2], the “τ1/2 (DMSO), Z-E isomerization half-life” value was determined as 1830 min and the “τ1/2 (Aqueous Kolliphor ELP), Z-E isomerization half-life” value (“τ1/2 (Aqueous Kolliphor ELP)” below) was 31 min. In addition, the “Solubility in aqueous solutions (in words)” value in series [3] (seen in the cytotoxicity test) is given as “poor solubility in aqueous solutions at concentrations above 200 µM”.
As to `CCN(CC)CC(=O)Nc1c(C)cccc1C` [Lidocaine 2%, Lidocaine], in the series with rabbit eye cornea [4] (listed as lidocaine), the “Local Anesthetic Activity (Regnier Index, Min—13, Max—1300) Under Irradiation (λ = 365 nm)” value was 469 ± 37 and the “Local Anesthetic Activity (Regnier Index, Min—13, Max—1300) In the Dark” value was 451 ± 40. In the series with rabbit eye cornea [4], the “Local Anesthetic Activity (Regnier Index, Min—13, Max—1300) Under Irradiation (λ = 365 nm)” value is recorded as 469 ± 37 (n = 8) and the “Local Anesthetic Activity (Regnier Index, Min—13, Max—1300) In the Dark” value was 451 ± 40 (n = 8). Also, the IC50 at 24 h in series [1] was > 5000 µM.
The compound `Cl.Fc1ccccc1N=Nc1ccc(OCCN2CCOCC2)cc1` [Compound 20c, 2′-fluoro-4-(2-(N-morpholino)-ethoxy)-azobenzene hydrochloride] registered an IC50 in series [5] of 190 µM. In series [2], the “τ1/2 (DMSO), Z-E isomerization half-life” value turned out to be 216 min and the “τ1/2 (Aqueous Kolliphor ELP)” value amounted to 24 min. In the series on rabbit eye cornea [6] (in the dark (E-form predominance)), the “Local Anesthetic Activity (Regnier Index, Min—13, Max—1300) In the Dark” value is listed as 590 ± 24 (n = 6). Besides, the “Local Anesthetic Activity (Regnier Index, Min—13, Max—1300) Under Irradiation (λ = 365 nm)” value in the series with rabbit eye cornea [6] (solution irradiated with UV 365 nm (Z-form predominance)) is 70 ± 7 (n = 4).
In series [1], `c1csc(/N=N/c2ccc(OCCN3CCOCC3)cc2)n1` [Compound 25a, 2-(4-(2-(N-morpholino)-ethoxy)-phenylazo)-thiazole hydrochloride] had an IC50 at 24 h of 200 µM. Moreover, in series [2], the “τ1/2 (DMSO), Z-E isomerization half-life” value is recorded as 12 min and the “τ1/2 (Aqueous Kolliphor ELP)” value is given as 13 min. In addition, the solubility (in general, how much of the substance goes into solution per volume) in series [3] (water) is > 100 mg/mL.
